In patent US20020094524A1, “Compositions and methods for inhibiting HIV infection” (priority 2000, published 2002):

Key:
CCR5 = assay: Macrophage receptor expression by flow cytometry; type: cell-based, human; conditions: overnight/24 h; among CD4, CCR5, CXCR4 and CD14 only CCR5 changed (FIG. 8)
Procedure: The cells were removed from the culture plate and then resuspended in 100 μl of phosphate-buffered saline (PBS). After incubation with 20 μl of either anti-CCR5-FITC or anti-CXCR4-FITC or anti-CD4-FITC or anti-CD14-FITC for 45 min at 4° C., the cells were washed twice with PBS and fixed with 1% paraformaldehyde in PBS. Fluorescein-conjugated control antibodies were isotype-matched IgG. Fluorescence was analyzed on an EPICS-Elite flow cytometer (Beckman-Coulter Electronics, Hialeah, Fla.).

HIV Bal strain = assay: HIV RT activity in HIV Bal strain-infected MDM; type: cell-based, HIV-1; conditions: for HIV RT activity increased: MDM, 12 days after infection (FIG. 1A)
Procedure: The cells were also incubated with SP and/or anti-SP antibody. In this case, SP was incubated with (1:1000 dilution in 10% FCS DMEM) or without anti-SP antibody at room temperature for 10 min and then the mixture was added to the cell cultures for 2 h. When the cells were treated with the combination of CP-96,345 and SP, or CP-96,345, SP and anti-SP antibody, CP-96,345 was incubated with the cell culture for 10 min and then SP was added to the MDM or CP-96,345, SP and anti-SP (1:1000 in 10% FCS DMEM) were incubated for 10 min at room temperature and the mixture was incubated with the MDM for 2 h before infection with HIV. Untreated MDM served as controls. The cells were treated prior to, during, and throughout the infection.
HIV Infection: After 2 h incubation with or without the reagents described above, the cells were infected with equal amounts of cell-free HIV based on p24 antigen content (20 ng/10^6 cells) overnight, and then washed to remove unbound virus. Fresh media containing SP and/or CP-96,345 or anti-SP antibody were added to the MDM as described above. The culture media and the reagents were replaced twice weekly. The culture supernatants were harvested for HIV reverse transcriptase (RT) activity determinations. After HIV infection, the MDM were incubated for 8 to 12 days. At the termination of the experiments, cellular RNA was extracted for assessment of HIV gag gene expression using RT-PCR or real time RT-PCR assays.
The HIV RT activity assay was carried out based on the technique of Willey et al. (30) with modification (22).

HIV LTR promoter = assay: HIV LTR-driven CAT activity assay in U38 cells; type: cell-based
Source text: ACH-2 and U38 cell lines (25, 26) were obtained from the NIH AIDS Reagent Program. DNA extracted from ACH-2 cells was used as a positive standard for HIV DNA PCR as previously reported (27). The U38 cell line contains stably integrated, silent copies of the HIV LTR (long terminal repeat) promoter linked to a CAT (chloramphenicol acetyltransferase) gene and was used to study the effect of SP and/or CP-96,345 and R-113281 on the activation of HIV LTR promoter.
Chloramphenicol acetyltransferase (CAT) activity assay:U38 cells (2×10^6 cells) were incubated with different concentrations of SP and/or CP-96,345 or R-113281 for 48 h. Untreated U38 cells were used as a background control. Cellular proteins were extracted using 1× Reporter Lysis Bufffer (Promega Corp., Madison, Wis.). The lysates were incubated with a mixture containing 0.15 μCi of ^14C-labeled chloramphenicol (DuPont Inc., Boston, Mass.) and 200 μg/ml of n-Butyryl CoA (Promega Corp., Madison, Wis.) in a total volume of 125 μl at 37° C. for 3 h. The acetylated forms of chloramphenicol were extracted with xylene (Aldrich Chemical Company, Milwaukee, Wis.). CAT activity of each sample was quantified using a liquid-scintillation counter (Packard Instrument Company, Downers Grove, Ill.). The results were expressed as the ratio of CAT activity (CPM) of the SP and/or CP-96,345-treated or R-113281-treated U38 to that of the background control.

## COc1ccccc1CN[C@H]1C2CCN(CC2)[C@H]1C(c1ccccc1)c1ccccc1 [CP-96,344]
CCR5
  CCR5 receptor expression on MDM (percentage positive cells): did not affect
HIV Bal strain; 10^−7M, 8 days after infection (FIG. 4)
  viral replication by HIV RT activity vs HIV infection control: did not have the effect

## Substance P [SP]
HIV Bal strain; SP 10^−6M, 12 days after infection (FIG. 5)
  effect of SP alone on HIV replication (RT activity and gag mRNA): enhanced HIV replication
HIV Bal strain; SP 10^−6M
  HIV RT activity increased: 58%
HIV Bal strain; SP 10^−8M
  HIV RT activity increased: 40%
HIV Bal strain; SP 10^−10M
  HIV RT activity increased: 14%
HIV LTR promoter; SP 10^−5M, 48 hours (FIG. 16)
  HIV LTR-driven CAT activity vs untreated baseline: significantly increases
HIV LTR promoter; SP 10^−10 to 10^−6M, 48 h, P<0.05 (FIG. 7)
  HIV LTR-driven CAT activity vs untreated control cells: significantly increased
